Measurements published in ChEMBL document CHEMBL3779883, “Design and Synthesis of Nonpeptide Inhibitors of Hepatocyte Growth Factor Activation” (ACS Med Chem Lett, 2016).
In brackets after ≈: the same amount, converted by molar mass.

Tests used:
[1] = molecular target: T1, Suppressor of tumorigenicity 14 protein (Homo sapiens, UniProt Q9Y5Y6); assay: Inhibition of human recombinant matripase catalytic domain using H2N(EEdansyl)GKQLRVVNGG (KDabcyl)-NH2 as substrate by fluorometric analysis
T1 sequence (Q9Y5Y6 whole entry): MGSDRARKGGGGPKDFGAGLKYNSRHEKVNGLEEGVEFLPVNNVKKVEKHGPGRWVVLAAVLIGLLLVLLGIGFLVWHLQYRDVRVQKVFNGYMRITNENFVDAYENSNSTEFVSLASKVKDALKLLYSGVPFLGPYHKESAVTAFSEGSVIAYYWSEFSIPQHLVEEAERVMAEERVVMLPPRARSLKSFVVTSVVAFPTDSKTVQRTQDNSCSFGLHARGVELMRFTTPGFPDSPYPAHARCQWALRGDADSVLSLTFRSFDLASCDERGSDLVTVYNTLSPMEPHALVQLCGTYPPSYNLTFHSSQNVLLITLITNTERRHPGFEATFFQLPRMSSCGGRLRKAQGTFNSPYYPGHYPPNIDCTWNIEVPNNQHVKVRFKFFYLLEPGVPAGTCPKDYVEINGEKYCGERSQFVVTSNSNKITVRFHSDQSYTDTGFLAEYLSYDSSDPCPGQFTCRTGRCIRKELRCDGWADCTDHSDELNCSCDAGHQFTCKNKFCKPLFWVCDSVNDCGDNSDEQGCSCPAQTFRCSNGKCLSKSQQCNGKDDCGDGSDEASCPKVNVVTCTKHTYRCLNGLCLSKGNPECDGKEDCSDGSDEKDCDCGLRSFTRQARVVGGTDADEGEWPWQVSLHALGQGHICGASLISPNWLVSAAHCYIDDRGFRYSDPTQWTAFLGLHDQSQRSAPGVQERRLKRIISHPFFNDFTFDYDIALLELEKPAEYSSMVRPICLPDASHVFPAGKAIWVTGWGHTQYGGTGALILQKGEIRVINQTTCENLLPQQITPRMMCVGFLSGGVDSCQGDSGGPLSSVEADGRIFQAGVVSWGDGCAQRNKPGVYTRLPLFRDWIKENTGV

[2] = molecular target: Serine protease hepsin (Homo sapiens, UniProt P05981); assay: Inhibition of human recombinant hepsin using H2N(EEdansyl)GKQLRVVNGG (KDabcyl)-NH2 as substrate by fluorometric analysis
[3] = molecular target: T2, Hepatocyte growth factor activator serine protease (Homo sapiens, UniProt Q04756); assay: Inhibition of human recombinant hepatocyte growth factor activator using H2N(EEdansyl)GKQLRVVNGG (KDabcyl)-NH2 as substrate by fluorometric analysis; type: single protein
T2 sequence (Q04756 whole entry): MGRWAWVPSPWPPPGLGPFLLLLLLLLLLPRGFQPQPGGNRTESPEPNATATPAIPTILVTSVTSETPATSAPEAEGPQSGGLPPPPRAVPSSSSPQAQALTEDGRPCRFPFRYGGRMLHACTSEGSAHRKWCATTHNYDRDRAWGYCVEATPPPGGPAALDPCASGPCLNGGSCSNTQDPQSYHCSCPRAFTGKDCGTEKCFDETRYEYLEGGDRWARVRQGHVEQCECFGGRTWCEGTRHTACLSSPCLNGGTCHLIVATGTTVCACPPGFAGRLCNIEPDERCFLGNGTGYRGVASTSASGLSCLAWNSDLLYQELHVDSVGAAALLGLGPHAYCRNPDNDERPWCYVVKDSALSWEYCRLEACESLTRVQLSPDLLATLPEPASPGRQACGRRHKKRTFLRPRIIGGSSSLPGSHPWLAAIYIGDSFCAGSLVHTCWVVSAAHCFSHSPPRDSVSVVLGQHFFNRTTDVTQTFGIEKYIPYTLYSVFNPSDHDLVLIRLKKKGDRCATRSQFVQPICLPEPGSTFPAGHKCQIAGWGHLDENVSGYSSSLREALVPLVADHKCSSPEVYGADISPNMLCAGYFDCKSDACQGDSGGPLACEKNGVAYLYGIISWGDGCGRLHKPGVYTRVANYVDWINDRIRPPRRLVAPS

[4] = molecular target: Trypsin (Homo sapiens, UniProt P07477+P07478+P35030); assay: Inhibition of human recombinant trypsin using H2N(EEdansyl)GKQLRVVNGG (KDabcyl)-NH2 as substrate by fluorometric analysis; type: protein assay
[5] = molecular target: Prothrombin (Homo sapiens, UniProt P00734); assay: Inhibition of human recombinant thrombin using H2N(EEdansyl)GKQLRVVNGG (KDabcyl)-NH2 as substrate by fluorometric analysis
[6] = molecular target: Coagulation factor X (Homo sapiens, UniProt P00742); assay: Inhibition of human recombinant factor 10a using H2N(EEdansyl)GKQLRVVNGG (KDabcyl)-NH2 as substrate by fluorometric analysis
[7] = molecular target: Hepatocyte growth factor activator/Serine protease hepsin/Suppressor of tumorigenicity 14 protein (Homo sapiens) (UniProt Q9Y5Y6+P05981+Q04756); assay: Inhibition of matripase/hepsin/hepatocyte growth factor activator-mediated HGF activation in human 18Co fibroblasts assessed as scattering of human DU145 cells after 24 hrs by crystal violet staining method; type: cell-based
[8] = Kinetic solubility of the compound at pH 7.4; type: physicochemical; details: buffer, read-out: Kinetic_solubility
[9] = Lipophilicity, logD of the compound at pH 7.4 by shake-flask method; type: physicochemical; details: buffer
[10] = Half life in human liver microsomes by LC/MS analysis; type: ADME
[11] = Half life in mouse liver microsomes by LC/MS analysis; type: ADME
[12] = Half life in mouse at 1 mg/kg, iv; type: ADME, organism-based; details: in vivo
[13] = Clearance in mouse at 1 mg/kg, iv; type: ADME, organism-based; details: in vivo
[14] = Volume of distribution in mouse at 1 mg/kg, iv; type: ADME, organism-based; details: in vivo
[15] = AUC in mouse at 1 mg/kg, iv; type: ADME, organism-based; details: in vivo
[16] = Cmax in mouse at 5 mg/kg, po; type: ADME, organism-based; set-up: dose 5 mg/kg, route oral; details: in vivo
[17] = AUC in mouse at 5 mg/kg, po; type: ADME, organism-based; details: in vivo
[18] = Oral bioavailability in mouse at 5 mg/kg; type: ADME, organism-based; details: in vivo

Chain of Coagulation factor X (P00742 41-179 limits assumed): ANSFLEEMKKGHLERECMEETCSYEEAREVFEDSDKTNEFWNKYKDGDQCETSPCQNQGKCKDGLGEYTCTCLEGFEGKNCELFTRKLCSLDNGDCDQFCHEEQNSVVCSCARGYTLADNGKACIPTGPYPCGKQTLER
Chain of Coagulation factor X (P00742 235-488 limits assumed): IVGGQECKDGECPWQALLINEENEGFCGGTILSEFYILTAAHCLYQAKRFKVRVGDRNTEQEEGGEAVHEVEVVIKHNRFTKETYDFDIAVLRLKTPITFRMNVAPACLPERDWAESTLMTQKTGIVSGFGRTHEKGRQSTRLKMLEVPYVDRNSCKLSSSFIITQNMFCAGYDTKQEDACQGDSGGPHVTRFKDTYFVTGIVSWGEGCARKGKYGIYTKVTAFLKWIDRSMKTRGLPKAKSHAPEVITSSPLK
Chain of Hepatocyte growth factor activator/Serine protease hepsin/Suppressor of tumorigenicity 14 protein (Homo sapiens) (P05981 whole entry, looked up, one chain of several): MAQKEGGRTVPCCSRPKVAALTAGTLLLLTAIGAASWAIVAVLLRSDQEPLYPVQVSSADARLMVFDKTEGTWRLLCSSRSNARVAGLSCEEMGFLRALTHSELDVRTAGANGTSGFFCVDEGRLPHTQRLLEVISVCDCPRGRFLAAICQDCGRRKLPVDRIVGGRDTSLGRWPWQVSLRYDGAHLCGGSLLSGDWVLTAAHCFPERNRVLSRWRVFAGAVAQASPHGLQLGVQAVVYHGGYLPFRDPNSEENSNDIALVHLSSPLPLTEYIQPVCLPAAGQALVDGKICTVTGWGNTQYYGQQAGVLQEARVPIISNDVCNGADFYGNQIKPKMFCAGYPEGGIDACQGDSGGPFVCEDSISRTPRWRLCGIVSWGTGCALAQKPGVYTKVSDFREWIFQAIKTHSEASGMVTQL
Chain of Serine protease hepsin (P05981 1-162 limits assumed): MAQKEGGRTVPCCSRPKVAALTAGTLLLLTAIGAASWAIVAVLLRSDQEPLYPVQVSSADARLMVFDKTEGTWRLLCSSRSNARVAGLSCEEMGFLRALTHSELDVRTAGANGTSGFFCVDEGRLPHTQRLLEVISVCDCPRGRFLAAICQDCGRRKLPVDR
Chain of Serine protease hepsin (P05981 163-417 limits assumed): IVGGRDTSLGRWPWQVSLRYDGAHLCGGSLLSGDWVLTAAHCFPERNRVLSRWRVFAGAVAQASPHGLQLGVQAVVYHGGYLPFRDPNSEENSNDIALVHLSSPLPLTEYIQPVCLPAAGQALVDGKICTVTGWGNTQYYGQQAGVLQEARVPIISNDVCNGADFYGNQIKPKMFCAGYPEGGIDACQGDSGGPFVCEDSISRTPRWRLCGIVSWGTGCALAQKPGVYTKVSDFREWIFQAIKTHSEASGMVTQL

Ki [1] [nM]	Ki [2] [nM]	Ki [3] [nM]	Ki [4] [µM]	Ki [5] [µM]	Ki [6] [nM]	inhibition [7]	solubility kinetic [8] [µM]	logD [9]	half-life [10] [min]	half-life [11] [min]	half-life [12] [min]	clearance [13] [mL/min/kg]	Vd [14] [L/kg]	AUC [15] [ng·h/mL]	Cmax [16] [ng/mL]	AUC [17] [ng·h/mL]	bioavailability [18] [%]	Structure (SMILES)
350	530	440	0.31	13.4	660	–	–	–	–	–	–	–	–	–	–	–	–	N=C(N)c1cccc(N2CC(NS(=O)(=O)Cc3ccccc3)CN(CC3CCN(Cc4ccccc4)CC3)C2=O)c1 (stereo unspecified)
580	690	230	0.15	7.4	250	Dose-dependent effect	47 (≈ 20.5 µg/mL)	< 2	–	–	–	–	–	–	–	–	–	N=C(N)c1cccc(N2CC(CO)CN(CC3CCN(Cc4ccccc4)CC3)C2=O)c1 (stereo unspecified)
470	1100	1100	0.33	> 100	750	–	–	–	–	–	–	–	–	–	–	–	–	N=C(N)c1cccc(N2CC(CNC(=O)c3ccccc3)CN(CC3CCN(Cc4ccccc4)CC3)C2=O)c1 (stereo unspecified)
1280	1120	380	0.5	42.3	740	–	–	–	–	–	–	–	–	–	–	–	–	N=C(N)c1cccc(N2CC(NC(=O)Cc3ccccc3)CN(CC3CCN(Cc4ccccc4)CC3)C2=O)c1 (stereo unspecified)
510	2120	1110	2.77	> 100	400	–	–	–	–	–	–	–	–	–	–	–	–	CC1CN(CCC2CCN(Cc3ccccc3)CC2)C(=O)N(c2cccc(C(=N)N)c2)C1 (stereo unspecified)
1510	310	1080	0.59	> 100	1550	–	–	–	–	–	–	–	–	–	–	–	–	N=C(N)c1cccc(N2CC(CNC(=O)Cc3ccccc3)CN(CC3CCN(Cc4ccccc4)CC3)C2=O)c1 (stereo unspecified)
15400	20800	39600	4.8	82.2	22800	–	–	–	–	–	–	–	–	–	–	–	–	CC1CN(Cc2ccc(C(=N)N)cc2)C(=O)N(C2CCN(Cc3ccccc3)CC2)C1 (stereo unspecified)
810	760	2490	0.76	> 100	1230	–	47 (≈ 20.5 µg/mL)	< 2	–	–	–	–	–	–	–	–	–	COC1CN(CC2CCN(Cc3ccccc3)CC2)C(=O)N(c2cccc(C(=N)N)c2)C1 (stereo unspecified)
850	560	430	0.1	2.13	180	–	47 (≈ 24.7 µg/mL)	< 2	–	–	–	–	–	–	–	–	–	N=C(N)c1cccc(N2CC(COCc3ccccc3)CN(CC3CCN(Cc4ccccc4)CC3)C2=O)c1 (stereo unspecified)
48900	61200	46500	35.4	> 100	25500	–	–	–	–	–	–	–	–	–	–	–	–	CC1CN(c2ccc(C(=N)N)cc2)C(=O)N(C2CCN(Cc3ccccc3)CC2)C1 (stereo unspecified)
13500	15100	> 100000	4.8	> 100	49400	–	–	–	–	–	–	–	–	–	–	–	–	CC1CN(Cc2cccc(C(=N)N)c2)C(=O)N(C2CCN(Cc3ccccc3)CC2)C1 (stereo unspecified)
520	670	520	0.34	17	610	–	–	–	–	–	–	–	–	–	–	–	–	N=C(N)c1cccc(N2CC(NS(=O)(=O)c3ccccc3)CN(CC3CCN(Cc4ccccc4)CC3)C2=O)c1 (stereo unspecified)
850	920	160	0.21	8.1	200	Dose-dependent effect	47 (≈ 21.1 µg/mL)	< 2	–	–	–	–	–	–	–	–	–	COCC1CN(CC2CCN(Cc3ccccc3)CC2)C(=O)N(c2cccc(C(=N)N)c2)C1 (stereo unspecified)
530	540	480	0.43	11.6	380	Dose-dependent effect	91.6 (≈ 38.4 µg/mL)	-0.49	162	296	348	38	4.49	414	4.45	3.31	< 1	CC1CN(CC2CCN(Cc3ccccc3)CC2)C(=O)N(c2cccc(C(=N)N)c2)C1 (stereo unspecified)
330	720	350	0.42	> 100	510	–	–	–	–	–	–	–	–	–	–	–	–	CS(=O)(=O)NC1CN(CC2CCN(Cc3ccccc3)CC2)C(=O)N(c2cccc(C(=N)N)c2)C1 (stereo unspecified)
1540	760	1920	0.55	29.7	920	–	47 (≈ 24 µg/mL)	< 2	–	–	–	–	–	–	–	–	–	N=C(N)c1cccc(N2CC(OCc3ccccc3)CN(CC3CCN(Cc4ccccc4)CC3)C2=O)c1 (stereo unspecified)
830	3400	9800	0.78	35.9	240	–	–	–	–	–	–	–	–	–	–	–	–	CC1CN(c2cccc(C(=N)N)c2)C(=O)N(C2CCN(Cc3ccccc3)CC2)C1 (stereo unspecified)
280	210	880	0.39	21.9	850	Dose-dependent effect	47 (≈ 19.8 µg/mL)	< 2	–	–	–	–	–	–	–	–	–	N=C(N)c1cccc(N2CC(O)CN(CC3CCN(Cc4ccccc4)CC3)C2=O)c1 (stereo unspecified)
40500	53100	54600	5.3	> 100	5400	–	–	–	–	–	–	–	–	–	–	–	–	N=C(N)c1cccc(NC(=O)NC2CCN(Cc3ccccc3)CC2)c1
